# Measurements published in patent publication US7094909B2, “HIV protease inhibitors, compositions containing the same, their pharmaceutical uses and materials for their synthesis” (priority 2001, dated 2006).
# Target: T1, HIV-1 protease (Q7S mutant form) (Human immunodeficiency virus type 1 group M subtype B, UniProt P04585, Q495S)
# T1 construct: made in house
# Experiment: HIV-1 Protease RET assay
# Assay type: biochemical
# Details: Ave. Ki (nM), RET assay, Q7S enzyme, Morrison tight binding fit
# Description: Ki's for the inhibitors of HIV-1 protease were determined using a resonance energy transfer (RET) assay. […] This enzyme is first partially purified as inclusion bodies from cell lysate. It is then solublized in 8M urea and passed through a Q-Sepharose column (Pharmacia) for further purification. To refold this protein, samples containing Q7S is dialyzed into 50 mM sodium phosphate pH 7.0, 50 mM NaCl, 10 mM DTT, and 10% glycerol.
# The commercially available peptide substrate (Molecular Probes Cat. # H-2930) RE(EDANS)SQNYPIVQK(DABCYL)R is used to assess activity and Ki's. This peptide is cleaved quantitatively by HIV-1 Pr at the Tyr-Pro bond. The EDANS fluorophore absorbs at 340 nm and emits at 490 nm. The reaction is carried out in a 96 well plate in a total volume of 100 µL and is run for 12 minutes at 37 C under steady-state conditions with 5 µM substrate and 2 nM active dimer enzyme concentration. The literature value Km for this substrate and enzyme is 103+/−8 µM (See Matayoshi, et al., “Novel Fluorogenic Substrates for Assaying Retroviral Proteases by Resonance Energy Transfer,” Science 247, 954 (1990)). The buffer for this reaction is 0.1M sodium acetate pH 4.8, 1M NaCl, 1 mM EDTA, 5 mM dithiothreitol, 10% dimethyl sulfoxide and 1 mg/ml bovine serum albumin. Inhibition curves are fit using the Morrison tight binding equation.
row,Structure (SMILES),Ki
1,"Cc1ccccc1CNC(=O)[C@H]1N(C(=O)[C@@H](O)[C@H](Cc2ccccc2)NC(=O)NCc2cccc(C(F)(F)F)c2)CSC1(C)C [Example B75, (R)-3-{(2S,3S)-2-Hydroxy-4-phenyl-3-[3-(3-trifluoromethyl-benzyl)-ureido]-butyryl}-5,5-dimethyl-thiazolidine-4-carboxylic acid 2-methyl-benzylamide]",81 nM
2,"COc1cccc(CNC(=O)N[C@@H](Cc2ccccc2)[C@H](O)C(=O)N2CSC(C)(C)[C@H]2C(=O)NCc2ccccc2C)c1 [Example B76, (R)-3-{(2S,3S)-2-Hydroxy-3-[3-(3-methoxy-benzyl)-ureido]-4-phenyl-butyryl}-5,5-dimethyl-thiazolidine-4-carboxylic acid 2-methyl-benzylamide]",11.2 nM
3,"CC(C)=CCNC(=O)[C@@H]1CC(F)(F)CN1C(=O)[C@@H](O)[C@H](Cc1ccccc1)NC(=O)c1cccc(O)c1C [Example C9, (S)-4,4-Difluoro-1-((2S,3S)-2-hydroxy-3-{[1-(3-hydroxy-2-methyl-phenyl)-methanoyl]-amino}-4-phenyl-butanoyl)-pyrrolidine-2-carboxylic acid (3-methyl-but-2-enyl)-amide]",6.3 nM
4,"Cc1c(O)cccc1C(=O)N[C@@H](Cc1ccccc1)[C@H](O)C(=O)N1CC(F)(F)C[C@H]1C(=O)NCc1c(F)cccc1Cl [Example C14, (S)-4,4-Difluoro-1-[(2S,3S)-2-hydroxy-3-(3-hydroxy-2-methyl-benzoylamino)-4-phenyl-butyryl]-pyrrolidine-2-carboxylic acid 2-chloro-6-fluoro-benzylamide]",2.5 nM
5,"Cc1c(O)cccc1C(=O)N[C@@H](Cc1ccccc1)[C@H](O)C(=O)N1CO[C@@H](C)[C@H]1C(=O)N[C@@H]1C=CCCC1 [Example C28, (4S,5S)-3-((2S,3S)-2-Hydroxy-3-{[1-(3-hydroxy-2-methyl-phenyl)-methanoyl]-amino}-4phenyl-butanoyl)-5-methyl-oxazoldine-4-carboxylic acid (S)-cyclohex-2-enylamide]",8.4 nM
6,"Cc1ccccc1CNC(=O)[C@@H]1CC(F)(F)CN1C(=O)[C@@H](O)[C@H](Cc1ccccc1)NC(=O)c1c(C)noc1C [Example C43, 3,5-Dimethyl-isoxazole-4-carboxylic acid {1-benzyl-3-[4,4-difluoro-2-(2-methyl-benzylcarbamoyl)-pyrrolidin-1-yl]-2-hydroxy-3-oxo-propyl}-amide]",21 nM
7,"C#CCOC(=O)N[C@@H](Cc1ccccc1)[C@H](O)C(=O)N1CC(F)(F)C[C@H]1C(=O)NCc1ccccc1C [Example C44, {1-Benzyl-3-[4,4-difluoro-2-(2-methyl-benzylcarbamoyl)-pyrrolidin-1-yl]-2-hydroxy-3-oxo-propyl}-carbamic acid prop-2-ynyl ester]",14.8 nM
8,"Cc1ccccc1CNC(=O)[C@@H]1C[C@@H]2CCCC[C@@H]2CN1C(=O)[C@@H](O)[C@H](Cc1ccccc1)NC(=O)c1cccc(O)c1C [Example C49, (3S,4aS,8aS)-2-((2S,3S)-2-Hydroxy-3-{[1-(3-hydroxy-2-methyl-phenyl)-methanoyl]-amino}-4-phenyl-butanoyl)-decahydro-isoquinoline-3-carboxylic acid 2-methyl-benzylamide]",150 nM

# Same assay, conditions: Ki, unit inferred
row,Structure (SMILES),Ki
1,CC1(C)SCN(C(=O)[C@@H](O)[C@H](Cc2ccccc2)NC(=O)NCc2ccccc2Cl)C1C(=O)NCc1ccccc1Cl (some centres unmarked) [drawing 953],74 nM
2,Cc1ccccc1CNC(=O)[C@H]1N(C(=O)[C@@H](O)[C@H](Cc2ccccc2)NC(=O)CCNC(=O)OC(C)(C)C)CSC1(C)C [drawing 1035],94 nM
3,Cc1ccccc1CNC(=O)[C@H]1N(C(=O)[C@@H](O)[C@H](Cc2ccccc2)NC(=O)CCNC(=O)OC(C)(C)C)CSC1(C)C [drawing 1038],48 nM
